Square brackets hold non-standard residues; d marks the D form. Ends that are not written are not given here. Peptide text beside a SMILES is read from it. * marks the point of attachment. pS = N[C@@H](COP(=O)(O)O)C(=O)O; Cbz = O=C(OCc1ccccc1)*
Tests used:
SCF^β-TrCP1 = SCF^β-TrCP1 (Homo sapiens, UniProt Q9Y297); test: In vitro ubiquitination assay (GST-Wee1KR substrate, immunoblotting); assay type: biochemical; details: immunoblots quantitated by ImageJ
Procedure: Components of SCF complex (SKP1, Cul1, Rbx1, and hemagglutinin (HA)-tagged β-TrCP) were expressed in HEK293T cells. Anti-HA antibody was added into the SCF complexes expressed HEK 293T cell lysate and rotated at 4°C for 1 h. Aliquots of this mixture were added to protein G beads and rotated at 4°C for 30 min. After washing the beads in cell lysis buffer three times, the tube was centrifuged at 20,400 × g for 5 min and the supernatant was discarded. The protein on the beads was used as recombinant SCF^β-TrCP complexes. Aliquots of SCF complexes bound on the beads were then added to ubiquitination reactions (10 mM Tris pH = 7.5, 5 mM MgCl2, 1 mM DTT, 1 mM ATP, 20 mM creatine phosphate, 0.1 mg/mL creatine kinase, 5 mM NaF, 1 mM Na3VO4, 2 mg/mL ubiquitin, 0.5 μg E1 enzyme, 2 μg E2 enzyme) in a final volume of 30 µL. Compounds of 100 µM final concentration were added to reactions, and GST-Wee1KR was added as substrate 15 min later. The reaction mixtures were incubated at 37°C for 2 h and were further examined by immunoblotting.
(§1) Immunoblotting followed by in vitro ubiquitination assay was performed using anti-human Wee1A [30]. Immunoblotting in the analysis of protein degradation was performed using anti-phospho-β-catenin (Ser33/37/Thr41) antibody (1:1000, Cell Signaling Technology, Danvers, MA, USA), anti-phospho-IκBα (Ser32) (14D4), Rabbit mAb (1:1000, Cell Signaling Technology), anti-β-catenin (D10A8) (1:1000, Cell Signaling Technology), anti-IκBα antibody (1:1000, Cell Signaling Technology), and Goat polyclonal anti-rabbit IgG antibody (1:5000, Proteintech, Am Klopferspitz, Planegg-Martinsried, Germany). The transferred membrane was incubated with specific antibody, then detected using Super Signal West Pico chemiluminescent substrate (Thermo Fisher Scientific) and FUSION SOLO S (VILBER LOURMAT/MS equipment, Zi Sud torcy, Marne-la-vallee, France). The quantification of immunoblotting results was performed using ImageJ software.

[1] = tested on: NF-κB transcription activity in HeLa cells; test: NF-κB luciferase reporter assay (pGL-4.32), TNF-α induced; assay type: cell-based; details: for NF-κB transcription, % of that of the control group (DMSO, TNF-α): 20 μM; for TNF-α induced NF-κB activation of transcription: 24 h compound then TNF-α 4 h
Procedure: For NF-κB transcription activity, PGL-4.32 contains five copies of the NF-κB response element, which is responsible for the transcription of the luciferase reporter gene, with pRL-SV40 as the internal control. NF-κB transcription activity was determined by firefly luciferase expression and normalized by renilla luciferase level. pGL-4.32 reporter plasmids (Promega) and pRL-sv40 renilla luciferase reporter (Promega) were co-transfected into HeLa cells using Lipofectamine 3000 reagent kit. Subsequently, 24 h after transfection, cells were cultured with the compounds of different dilutions for another 24 h. Furthermore, TNF-α was added, and the plates were cultured for another 4 h. The cells were lysed, and the luminescence was measured using the Luciferase Assay System. A minimum of three samples were taken for each sample.

HeLa cells = test: Cytotoxicity / cell death; assay type: cell-based; details: data not shown
[2] = tested on: TCF transcription in HeLa cells; test: TOP/FOP-Flash luciferase reporter assay (TCF transcription activity); assay type: cell-based; details: 24 h with compound
Procedure: HeLa cells were seeded on 96-well plates. Subsequently, TCF and NF-κB transcription activity was examined by the luciferase assay system. T-cell Factor (TCF) transcription activity was assessed by TOP/FOP-Flash luciferase reporter assay, using a pRL-SV40 vector as an internal control. TOP FLASH contains three […] and a firefly luciferase reporter with a minimal promoter and an upstream of the luciferase reporter gene. FOP FLASH is similar to TOP reporter; however, it has three mutated TCF-binding sites and is used as a negative control. The average ratio of TOP to renilla luciferase divided by FOP was used as TCF activity. TOP flash (Sigma-Aldrich, Temecula, CA, USA) or FOP FLASH reporter plasmids (Sigma-Aldrich) and pRL-sv40 renilla luciferase reporter (Promega) were co-transfected into HeLa cells using Lipofectamine 3000 reagent kit (Thermo Fisher Scientific). Furthermore, 24 h after transfection, cells were cultured with the compounds of different dilutions for another 24 h. The cells were lysed, and the luminescence was measured using the Luciferase Assay System (Promega). A minimum of three samples were taken for each sample.

[3] = tested on: β-catenin and phosphorylated β-catenin in HeLa cells; test: Analysis of β-catenin degradation by immunoblotting in HeLa cells; assay type: cell-based; details: 3 h with compound
Procedure: as §1
For examining the effect on degradation of β-catenin, HeLa cells were cultured in the presence or absence of the compound for 3 h. The cell extracts were examined by immunoblotting using antibodies against β-catenin and phosphorylated β-catenin (p-β-catenin).

[4] = tested on: IκBα and phosphorylated IκBα in HeLa cells; test: TNF-α induced IκBα degradation by immunoblotting in HeLa cells; assay type: cell-based; details: 30 min compound then TNF-α 40 ng/mL 5 min
Procedure: as §1
For examining the effect on degradation of IκBα, HeLa cells were cultured in the presence or absence of the compound for 30 min. TNF-α (Cat. No. TNA-H4211, Acro Biosystems, Newark, DE, USA) was added (40 ng/mL) and incubated for another 5 min. The cell extracts were analyzed using immunoblotting using antibodies against IκBα and phosphorylated IκBα (p-IκBα).

mAG-β-TrCP1 = biological target: T1, mAG-β-TrCP1 (Homo sapiens, UniProt Q9Y297); test: High-throughput screening system for β-TrCP ligands (mAG-β-TrCP1 binding to plate-fixed C-IκB-PP15); details: serially diluted free phosphopeptide in cell lysate
T1 construct: made in house; host or cells: Express SF+ insect cells (baculovirus, pFASTBacI); crude lysate used
T1 sequence (Q9Y297 1-605): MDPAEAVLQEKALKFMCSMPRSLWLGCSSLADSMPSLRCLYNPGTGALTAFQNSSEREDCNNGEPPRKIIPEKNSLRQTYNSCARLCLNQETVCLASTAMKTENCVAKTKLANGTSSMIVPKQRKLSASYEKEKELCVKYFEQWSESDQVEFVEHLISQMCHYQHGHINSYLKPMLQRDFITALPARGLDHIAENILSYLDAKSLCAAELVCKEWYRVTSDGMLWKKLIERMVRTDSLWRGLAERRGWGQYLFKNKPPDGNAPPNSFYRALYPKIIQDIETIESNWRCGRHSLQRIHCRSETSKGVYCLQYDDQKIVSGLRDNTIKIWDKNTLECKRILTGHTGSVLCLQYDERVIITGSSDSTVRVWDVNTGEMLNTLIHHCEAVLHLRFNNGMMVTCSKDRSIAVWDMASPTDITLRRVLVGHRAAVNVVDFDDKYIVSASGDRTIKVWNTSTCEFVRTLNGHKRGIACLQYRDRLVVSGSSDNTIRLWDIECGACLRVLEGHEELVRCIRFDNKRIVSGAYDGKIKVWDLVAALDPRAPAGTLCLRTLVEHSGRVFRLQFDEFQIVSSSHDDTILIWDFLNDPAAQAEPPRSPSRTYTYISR
From the text: NotI digested mAG-β-TrCP1 (mAG, N-terminally fused fluorescent monomeric Azami Green) fragment was inserted to NotI pFASTBacI (Gibco) site for obtaining recombinant plasmid containing mAG-β-TrCP1. The recombinant plasmids were then transformed into DH10Bac cells and the obtained recombinant bacmids were transfected into Express SF+ Cells. Phosphopeptides C-IkB pp15 with target sequences (seq: CDDRHDpSGLDpSMKDEE) for β-TrCP-dependent binding or its negative control C-IkB s15 (seq: CDDRHDSGLDSMKDEE) were used in the establishment of the high-throughput system. These phosphopeptides, and their non-phosphorylated derivatives, were chemically synthesized at RIKEN CBS, Research Resources Center, Japan. C-IkB pp15 or C-IkB s15 (100 μL/well of 10 μM solution) were covalently attached to maleimide-activated 96-well plates (Themo Fisher Scientific, Waltham, MA, USA) overnight. […] After washing, bound mAG-β-TrCP1 was quantitated using spectrofluorometry (excitation, 470 nm; emission, 525 nm).
C-IκB-PP15 is a phosphopeptide whose sequence is derived from IκB that is known to bind to β-TrCP. […] After enough binding and washing, the bound mAG-β-TrCP1 was quantitated using spectrofluorometry. […] When the small molecules compete with the phosphopeptides for mAG-β-TrCP1 binding, there was less plate fluorescence (Fig. 1A).

SCF^β-TrCP1, sequence (P63208 whole entry partner, one chain of several): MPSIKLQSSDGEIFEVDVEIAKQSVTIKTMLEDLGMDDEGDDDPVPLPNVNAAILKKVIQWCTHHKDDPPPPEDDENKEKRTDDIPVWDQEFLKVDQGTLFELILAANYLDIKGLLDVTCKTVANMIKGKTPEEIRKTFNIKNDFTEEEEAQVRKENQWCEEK
SCF^β-TrCP1, sequence (Q13616 whole entry partner, one chain of several): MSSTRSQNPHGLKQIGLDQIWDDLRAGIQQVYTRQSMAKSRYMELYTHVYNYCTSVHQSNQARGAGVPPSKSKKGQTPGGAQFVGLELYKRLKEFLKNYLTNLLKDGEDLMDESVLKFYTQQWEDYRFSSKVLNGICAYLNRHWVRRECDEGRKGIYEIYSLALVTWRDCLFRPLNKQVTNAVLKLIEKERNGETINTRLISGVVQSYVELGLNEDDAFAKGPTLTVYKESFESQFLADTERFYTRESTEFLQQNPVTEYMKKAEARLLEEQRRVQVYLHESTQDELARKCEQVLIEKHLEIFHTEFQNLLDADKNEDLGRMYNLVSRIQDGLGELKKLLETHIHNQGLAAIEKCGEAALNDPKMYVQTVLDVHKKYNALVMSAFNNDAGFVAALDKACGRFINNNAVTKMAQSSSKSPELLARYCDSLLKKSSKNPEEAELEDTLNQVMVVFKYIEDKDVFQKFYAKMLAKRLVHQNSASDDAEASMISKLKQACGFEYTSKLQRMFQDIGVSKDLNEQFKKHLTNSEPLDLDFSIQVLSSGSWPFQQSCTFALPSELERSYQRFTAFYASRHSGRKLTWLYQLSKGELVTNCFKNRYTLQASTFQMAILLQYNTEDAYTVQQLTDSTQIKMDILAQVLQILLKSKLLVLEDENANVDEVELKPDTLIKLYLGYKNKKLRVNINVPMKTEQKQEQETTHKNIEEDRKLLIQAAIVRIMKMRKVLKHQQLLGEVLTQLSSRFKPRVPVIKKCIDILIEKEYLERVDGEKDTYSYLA
SCF^β-TrCP1, sequence (P62877 whole entry partner, one chain of several): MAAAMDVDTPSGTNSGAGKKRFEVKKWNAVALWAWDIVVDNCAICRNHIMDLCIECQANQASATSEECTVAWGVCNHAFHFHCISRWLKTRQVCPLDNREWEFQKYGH

Molecule: CC1=NN(c2ccc(C(=O)O)cc2)C(=O)/C1=C\c1ccc(-c2cc(C)c(C)cc2[N+](=O)[O-])o1 [NPL62020-01]
- IC50 (SCF^β-TrCP1): 30 µM
- NF-κB transcription, % of that of the control group (DMSO, TNF-α) [1]: approximately 20%
- TNF-α induced NF-κB activation of transcription [1]: reduced NF-κB activation dose-dependently
- non-specific cytotoxicity (HeLa cells): cytotoxicity only at high concentration

Molecule: COC(=O)c1ccc(-c2ccc(/C=C3\C(=O)N(c4cccc(C(=O)O)c4)N=C3C(F)(F)F)o2)cc1 [NPL62039-01]
- TCF transcription [2]: did not cause a high increase
- IC50 (SCF^β-TrCP1): 9 µM
- level of phosphorylated β-catenin (p-β-catenin) [3]: promoted the accumulation
- level of β-catenin [3]: did not significantly affect

Molecule: CC(C)C[C@@H](C=O)NC(=O)[C@H](CC(C)C)NC(=O)[C@H](CC(C)C)NC(=O)OCc1ccccc1 [MG132, reference compound] (Cbz-Leu-Leu-Leu-aldehyde)
- level of IκBα after TNF-α [4]: caused the inhibition of the degradation
- level of phosphorylated IκBα (p-IκBα) after TNF-α [4]: caused the inhibition of the degradation
- level of phosphorylated β-catenin (p-β-catenin) [3]: caused the accumulation
- level of β-catenin [3]: caused the accumulation

Molecule: O=C(O)c1ccc(N2N=C(Cc3ccccc3)/C(=C/c3ccc(-c4ccccc4F)o3)C2=O)cc1 [GS143, reference compound]
- TCF transcription [2]: did not affect TCF transcription
- level of IκBα after TNF-α [4]: caused the inhibition of the degradation
- level of phosphorylated IκBα (p-IκBα) after TNF-α [4]: caused the inhibition of the degradation
- IC50 (SCF^β-TrCP1): 25 µM
- NF-κB transcription, % of that of the control group (DMSO, TNF-α) [1]: ~ 40%
- level of phosphorylated β-catenin (p-β-catenin) [3]: did not affect
- level of β-catenin [3]: did not affect

Molecule: CDDRHDpSGLDpSMKDEE (CDDRHD[pS]GLD[pS]MKDEE) [C-IκB-PP15]
- binding of mAG-β-TrCP1 to plate-fixed phosphopeptide in presence of free phosphopeptide (mAG-β-TrCP1): concentration-dependent binding decrease

Molecule: O=C(O)c1ccc(-c2ccc(/C=C3\C(=O)N(c4ccc(C(=O)O)cc4)N=C3C(F)(F)F)o2)cc1 [NPL72038-01]
- TCF transcription [2]: did not cause a high increase
- IC50 (SCF^β-TrCP1): 7 µM
- level of phosphorylated β-catenin (p-β-catenin) [3]: promoted the accumulation
- level of β-catenin [3]: did not significantly affect

Molecule: CC1=NN(c2ccc(C(=O)O)cc2)C(=O)/C1=C\c1ccc(-c2ccc3c(c2)C(=O)N(C(C)C)C3=O)o1 [NPL42040-01]
- IC50 (SCF^β-TrCP1): 13 µM
- TNF-α induced NF-κB activation of transcription [1]: reduced NF-κB activation dose-dependently
- non-specific cytotoxicity (HeLa cells): cytotoxicity only at high concentration

B1: Wnt3a: molecule that stimulates classic Wnt signaling (protein, UniProt P56704 19-352, looked up)
Protein Wnt-3a: SYPIWWSLAVGPQYSSLGSQPILCASIPGLVPKQLRFCRNYVEIMPSVAEGIKIGIQECQHQFRGRRWNCTTVHDSLAIFGPVLDKATRESAFVHAIASAGVAFAVTRSCAEGTAAICGCSSRHQGSPGKGWKWGGCSEDIEFGGMVSREFADARENRPDARSAMNRHNNEAGRQAIASHMHLKCKCHGLSGSCEVKTCWWSQPDFRAIGDFLKDKYDSASEMVVEKHRESRGWVETLRPRYTYFKVPTERDLVYYEASPNFCEPNPETGSFGTRDRTCNVSSHGIDGCDLLCCGRGHNARAERRREKCRCVFHWCCYVSCQECTRVYDVHTCK
- TCF transcription [2]: increased

From publication PMC10398414, “Isolation and characterization of β-transducin repeat-containing protein ligands screened using a high-throughput screening system” (Oncology Research, 2023)
